Source: PubChem BioAssay (NCI)
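Method: 48-hour compound exposure of cells in 96-well plates, five concentrations, linear interpolation of endpoints. TGI marks complete inhibition of growth.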

How the values were obtained:
Test in all cases: NCI-60 cell line screen, 48 h
A498 renal = test system: A498 renal
CAKI-1 renal = test system: CAKI-1 renal
EKVX NSCLC = test system: EKVX NSCLC
HCT-116 colon = test system: HCT-116 colon
HOP-62 NSCLC = test system: HOP-62 NSCLC
HOP-92 NSCLC = test system: HOP-92 NSCLC
NCI-H460 lung = test system: NCI-H460 lung
OVCAR-8 ovarian = test system: OVCAR-8 ovarian
SK-MEL-2 melanoma = test system: SK-MEL-2 melanoma
SK-MEL-28 melanoma = test system: SK-MEL-28 melanoma

CCOC(=O)c1[nH]cc(C)c1-c1cccn1-c1ccc(Cl)cc1[N+](=O)[O-]
TGI (A498 renal): > 100 µM
TGI (CAKI-1 renal): > 100 µM
TGI (EKVX NSCLC): 88.4 µM
TGI (HCT-116 colon): 30.4 µM
TGI (HOP-62 NSCLC): 44.9 µM
TGI (HOP-92 NSCLC): 51.9 µM
TGI (NCI-H460 lung): 48 µM
TGI (OVCAR-8 ovarian): 78.9 µM
TGI (SK-MEL-2 melanoma): 39.2 µM
TGI (SK-MEL-28 melanoma): 55.7 µM

COC1OCC(O)C(NC(=O)N(C)N=O)C1O (stereo not given)
TGI (A498 renal): > 100 µM
TGI (CAKI-1 renal): > 100 µM
TGI (EKVX NSCLC): > 100 µM
TGI (HCT-116 colon): > 100 µM
TGI (HOP-62 NSCLC): > 100 µM
TGI (HOP-92 NSCLC): > 100 µM
TGI (NCI-H460 lung): > 100 µM
TGI (OVCAR-8 ovarian): > 100 µM
TGI (SK-MEL-2 melanoma): > 100 µM
TGI (SK-MEL-28 melanoma): > 100 µM

C=C(C)[C@@H](O)[C@H](O)C[C@H](C)C1CC[C@]2(C)C1=CC[C@@H]1[C@@]3(C)CC[C@@H](OC(C)=O)C(C)(C)[C@@H]3C[C@@H](OC3OC(COC(C)=O)C(O)C(O)C3O)[C@]12C (stereo not given in full)
TGI (A498 renal): 10.4 µM
TGI (CAKI-1 renal): 11.8 µM
TGI (EKVX NSCLC): 12.3 µM
TGI (HCT-116 colon): 5.88 µM
TGI (HOP-62 NSCLC): 10.1 µM
TGI (HOP-92 NSCLC): 6.17 µM
TGI (NCI-H460 lung): 6.51 µM
TGI (OVCAR-8 ovarian): 13.8 µM
TGI (SK-MEL-2 melanoma): 3.63 µM
TGI (SK-MEL-28 melanoma): 6.08 µM

CC(C)NC(=O)OCc1c(COC(=O)NC(C)C)c(-c2ccc[n+](COC(=O)Cc3ccccc3)c2)n2c1CCC2
TGI (A498 renal): 44.7 µM
TGI (CAKI-1 renal): 34 µM
TGI (EKVX NSCLC): > 100 µM
TGI (HCT-116 colon): > 100 µM
TGI (HOP-62 NSCLC): > 100 µM
TGI (HOP-92 NSCLC): 46.2 µM
TGI (NCI-H460 lung): > 100 µM
TGI (OVCAR-8 ovarian): > 100 µM
TGI (SK-MEL-2 melanoma): 62.1 µM
TGI (SK-MEL-28 melanoma): > 100 µM

Cc1cc2cc3cc(C)c(N)cc3nc2cc1N
TGI (A498 renal): 1.89 µM
TGI (CAKI-1 renal): 2.64 µM
TGI (EKVX NSCLC): 1.47 µM
TGI (HCT-116 colon): 1.31 µM
TGI (HOP-62 NSCLC): 1.32 µM
TGI (HOP-92 NSCLC): 4.89 µM
TGI (NCI-H460 lung): 1.21 µM
TGI (OVCAR-8 ovarian): 2.2 µM
TGI (SK-MEL-2 melanoma): 10.4 µM
TGI (SK-MEL-28 melanoma): 2.94 µM

CNC(=O)N(CCC#N)CCN(C(=O)NC)c1ccccc1
TGI (A498 renal): > 100 µM
TGI (CAKI-1 renal): > 100 µM
TGI (EKVX NSCLC): > 100 µM
TGI (HCT-116 colon): > 100 µM
TGI (HOP-62 NSCLC): > 100 µM
TGI (HOP-92 NSCLC): > 100 µM
TGI (NCI-H460 lung): > 100 µM
TGI (OVCAR-8 ovarian): > 100 µM
TGI (SK-MEL-2 melanoma): > 100 µM
TGI (SK-MEL-28 melanoma): > 100 µM

O=C1c2cc(I)ccc2N2CCN=C2N1Cc1ccccc1
TGI (A498 renal): 94.1 µM
TGI (CAKI-1 renal): > 100 µM
TGI (EKVX NSCLC): > 100 µM
TGI (HCT-116 colon): > 100 µM
TGI (HOP-62 NSCLC): > 100 µM
TGI (HOP-92 NSCLC): 80.1 µM
TGI (NCI-H460 lung): > 100 µM
TGI (OVCAR-8 ovarian): > 100 µM
TGI (SK-MEL-2 melanoma): > 100 µM
TGI (SK-MEL-28 melanoma): > 100 µM

CC(C)(C)COC(=O)C(C)(C)NC(=O)C(CC(=O)OCc1ccccc1)NC(=O)OCc1ccccc1 (stereo not given)
TGI (A498 renal): 79.5 µM
TGI (CAKI-1 renal): > 100 µM
TGI (EKVX NSCLC): > 100 µM
TGI (HCT-116 colon): > 100 µM
TGI (HOP-62 NSCLC): > 100 µM
TGI (HOP-92 NSCLC): > 100 µM
TGI (NCI-H460 lung): > 100 µM
TGI (OVCAR-8 ovarian): > 100 µM
TGI (SK-MEL-2 melanoma): > 100 µM
TGI (SK-MEL-28 melanoma): > 100 µM
